Results as given in patent publication US20260146035A1, “FUSED BICYCLIC COMPOUNDS AND THEIR USE AS MER AND AXL INHIBITORS” (DONG-A ST CO., LTD., priority 2022, published 2026).

How the values were obtained:
human MER (528-end) = target: T1, human MER (528-end) (Homo sapiens, UniProt Q12866); assay: HTRF kinase activity biochemical assay, MER; settings: 10 μM ATP, 30 minutes pre-incubation; read-out: HTRF MERTK IC50
T1 construct: human MER (528-end); purchased Camnabio, Japan
T1 sequence (Q12866 528-999 limits assumed): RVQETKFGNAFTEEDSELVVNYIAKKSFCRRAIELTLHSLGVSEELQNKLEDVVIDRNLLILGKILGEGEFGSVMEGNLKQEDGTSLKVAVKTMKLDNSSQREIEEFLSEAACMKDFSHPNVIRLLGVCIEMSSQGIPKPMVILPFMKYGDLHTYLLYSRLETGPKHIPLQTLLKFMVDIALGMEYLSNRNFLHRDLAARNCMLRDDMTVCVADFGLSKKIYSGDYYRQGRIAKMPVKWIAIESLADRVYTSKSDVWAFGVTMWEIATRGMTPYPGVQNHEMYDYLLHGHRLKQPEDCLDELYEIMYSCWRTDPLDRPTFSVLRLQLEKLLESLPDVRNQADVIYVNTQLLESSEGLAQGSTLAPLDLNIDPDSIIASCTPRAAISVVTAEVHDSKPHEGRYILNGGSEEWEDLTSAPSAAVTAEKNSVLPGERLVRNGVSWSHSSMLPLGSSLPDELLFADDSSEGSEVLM

human AXL (473-end) = target: T2, human AXL (473-end) (Homo sapiens, UniProt P30530); assay: HTRF kinase activity biochemical assay, AXL; settings: 10 μM ATP, 30 minutes pre-incubation
T2 construct: human AXL (473-end); purchased SignalChem, Canada
T2 sequence (P30530 473-894 limits assumed): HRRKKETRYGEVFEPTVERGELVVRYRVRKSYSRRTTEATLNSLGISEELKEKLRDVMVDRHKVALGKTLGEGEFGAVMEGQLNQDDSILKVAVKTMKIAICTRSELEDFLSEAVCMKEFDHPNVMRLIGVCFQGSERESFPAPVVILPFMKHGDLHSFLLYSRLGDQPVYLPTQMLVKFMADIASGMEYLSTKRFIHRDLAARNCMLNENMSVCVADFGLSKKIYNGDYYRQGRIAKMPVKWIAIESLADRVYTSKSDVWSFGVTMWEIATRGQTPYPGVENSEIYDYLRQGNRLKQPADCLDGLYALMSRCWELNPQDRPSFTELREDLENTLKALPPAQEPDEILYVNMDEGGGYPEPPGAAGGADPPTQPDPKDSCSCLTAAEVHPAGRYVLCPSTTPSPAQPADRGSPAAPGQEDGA

human TYRO3 (455-end) = target: T3, human TYRO3 (455-end) (Homo sapiens, UniProt Q06418); assay: HTRF kinase activity biochemical assay, TYRO3; settings: 10 μM ATP, 30 minutes pre-incubation; read-out: HTRF TYRO IC50
T3 construct: TYRO3 (455-end); purchased SignalChem, Canada
T3 sequence (Q06418 455-890 limits assumed): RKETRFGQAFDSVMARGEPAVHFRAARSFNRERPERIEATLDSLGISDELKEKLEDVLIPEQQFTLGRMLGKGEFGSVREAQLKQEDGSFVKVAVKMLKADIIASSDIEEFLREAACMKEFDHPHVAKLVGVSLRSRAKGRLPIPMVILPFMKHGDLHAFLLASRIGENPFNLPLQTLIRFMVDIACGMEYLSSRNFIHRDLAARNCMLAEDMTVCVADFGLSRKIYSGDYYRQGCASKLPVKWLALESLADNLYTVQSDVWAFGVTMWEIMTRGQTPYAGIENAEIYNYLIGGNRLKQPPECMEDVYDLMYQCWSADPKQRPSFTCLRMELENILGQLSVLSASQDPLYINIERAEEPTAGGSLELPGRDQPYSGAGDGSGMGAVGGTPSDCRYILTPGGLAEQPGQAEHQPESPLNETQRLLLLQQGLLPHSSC

| SMILES | IC50 (human MER (528-end)) [nM] | IC50 (human AXL (473-end)) [nM] | IC50 (human TYRO3 (455-end)) [nM] |
| --- | --- | --- | --- |
| CC1(C)CN(C2CCN(CCO)CC2)c2ccc(-c3ccc(CO[C@H]4COC[C@@H]4NC(=O)c4cc(-c5ccc(F)nc5)cnc4N)cc3)cc21 [Example 35, 6-amino-6′-fluoro-N-{(3S,4R)-4-[(4-{1-[1-(2-hydroxyethyl)piperidin-4-yl]-3,3-dimethyl-2,3-dihydro-1H-indol-5-yl}phenyl)methoxy]oxolan-3-yl}[3,3′-bipyridine]-5-carboxamide] | < 10 | 10 to 100 | 100 to 1000 |
| CN1C[C@H](NC(=O)c2cc(-c3ccc(F)nc3)cnc2N)[C@@H](OCc2ccc(-c3ccc4c(c3)C(C)(C)CN4C3CCN(CCO)CC3)cc2)C1 [Example 37, 6-amino-6′-fluoro-N-{(3S,4S)-4-[(4-{1-[1-(2-hydroxyethyl)piperidin-4-yl]-3,3-dimethyl-2,3-dihydro-1H-indol-5-yl}phenyl)methoxy]-1-methylpyrrolidin-3-yl}[3,3′-bipyridine]-5-carboxamide] | < 10 | 10 to 100 | 100 to 1000 |
| Cc1nn(C)cc1-c1cnc(N)c(C(=O)N[C@H]2COC[C@@H]2OCc2ccc(-c3ccc4c(c3)C(C)(C)CN4C3CCN(CCO)CC3)cc2)c1 [Example 42, 2-amino-5-(1,3-dimethyl-1H-pyrazol-4-yl)-N-{(3S,4R)-4-[(4-{1-[1-(2-hydroxyethyl)piperidin-4-yl]-3,3-dimethyl-2,3-dihydro-1H-indol-5-yl}phenyl)methoxy]oxolan-3-yl}pyridine-3-carboxamide] | < 10 | < 10 | 10 to 100 |
| Cn1cc(-c2cnc(N)c(C(=O)N[C@H]3CCC[C@@H]3OCc3ccc(-c4ccc5c(c4)C4(CCOC4)CN5C4CCN(CCO)CC4)cc3)c2)cn1 (stereo partly drawn) [Example 43, 2-amino-N-{(1S,2S)-2-[(4-{1-[1-(2-hydroxyethyl)piperidin-4-yl]-1,2-dihydrospiro[indole-3,3′-oxolan]-5-yl}phenyl)methoxy]cyclopentyl}-5-(1-methyl-1H-pyrazol-4-yl)pyridine-3-carboxamide] | < 10 | 100 to 1000 | 100 to 1000 |
| CC1(C)CN(C2CCN(CCO)CC2)c2ccc(-c3ccc(CO[C@H]4COC[C@@H]4NC(=O)c4cc(-c5cncc(F)c5)cnc4N)cc3)cc21 [Example 44, 6-amino-5′-fluoro-N-{(3S,4R)-4-[(4-{1-[1-(2-hydroxyethyl)piperidin-4-yl]-3,3-dimethyl-2,3-dihydro-1H-indol-5-yl}phenyl)methoxy]oxolan-3-yl}[3,3′-bipyridine]-5-carboxamide] | < 10 | 100 to 1000 | 100 to 1000 |
| Cn1cc(-c2cnc(N)c(C(=O)N[C@H]3COC[C@@H]3OCc3ccc(-c4ccc5c(c4)CC[C@@H]5N4CCN(CCO)CC4)cc3)c2)cn1 [Example 45, 2-amino-N-{(3S,4R)-4-[(4-{(1S)-1-[4-(2-hydroxyethyl)piperazin-1-yl]-2,3-dihydro-1H-inden-5-yl}phenyl)methoxy]oxolan-3-yl}-5-(1-methyl-1H-pyrazol-4-yl)pyridine-3-carboxamide] | < 10 | < 10 | 100 to 1000 |
| Cc1c(-c2cnc(N)c(C(=O)N[C@H]3COC[C@@H]3OCc3ccc(-c4ccc5c(c4)C(C)(C)CN5C4CCN(CCO)CC4)cc3)c2)cnn1C [Example 47, 2-amino-5-(1,5-dimethyl-1H-pyrazol-4-yl)-N-{(3S,4R)-4-[(4-{1-[1-(2-hydroxyethyl)piperidin-4-yl]-3,3-dimethyl-2,3-dihydro-1H-indol-5-yl}phenyl)methoxy]oxolan-3-yl}pyridine-3-carboxamide] | < 10 | < 10 | 10 to 100 |
| CC1(C)CN(C2CCN(CCO)CC2)c2ccc(-c3ccc(CO[C@H]4COC[C@@H]4NC(=O)c4cc(-c5cccnc5F)cnc4N)cc3)cc21 [Example 49, 6-amino-2′-fluoro-N-{(3S,4R)-4-[(4-{1-[1-(2-hydroxyethyl)piperidin-4-yl]-3,3-dimethyl-2,3-dihydro-1H-indol-5-yl}phenyl)methoxy]oxolan-3-yl}[3,3′-bipyridine]-5-carboxamide] | < 10 | < 10 | 100 to 1000 |
| Cn1cc(-c2cnc(N)c(C(=O)N[C@H]3CCC[C@@H]3OCc3ccc(-c4ccc5c(c4)CC(F)(F)C5N4CCN(CCO)CC4)cc3)c2)cn1 (stereo partly drawn) [Example 50, 2-amino-N-{(1S,2S)-2-[(4-{2,2-difluoro-1-[4-(2-hydroxyethyl)piperazin-1-yl]-2,3-dihydro-1H-inden-5-yl}phenyl)methoxy]cyclopentyl}-5-(1-methyl-1H-pyrazol-4-yl)pyridine-3-carboxamide] | < 10 | < 10 | 100 to 1000 |
| C=C(C)c1cnc(N)c(C(=O)N[C@H]2CCC[C@@H]2OCc2ccc(-c3ccc4c(c3)C(C)(C)CN4C3CCN(CCO)CC3)cc2)c1 [Example 51, 2-amino-N-{(1S,2S)-2-[(4-{1-[1-(2-hydroxyethyl)piperidin-4-yl]-3,3-dimethyl-2,3-dihydro-1H-indol-5-yl}phenyl)methoxy]cyclopentyl}-5-(prop-1-en-2-yl)pyridine-3-carboxamide] | < 10 | < 10 | < 10 |

Continued, values first:

| IC50 (human MER (528-end)) [nM] | IC50 (human AXL (473-end)) [nM] | IC50 (human TYRO3 (455-end)) [nM] | SMILES |
| --- | --- | --- | --- |
| < 10 | < 10 | 10 to 100 | Cn1cc(-c2cnc(N)c(C(=O)N[C@H]3COC[C@@H]3OCc3ccc(-c4ccc5c(c4)C(C)(C)CN5C4CCN(CCO)CC4)cc3)c2)cn1 [Example 32, 2-amino-N-{(3S,4R)-4-[(4-{1-[1-(2-hydroxyethyl)piperidin-4-yl]-3,3-dimethyl-2,3-dihydro-1H-indol-5-yl}phenyl)methoxy]oxolan-3-yl}-5-(1-methyl-1H-pyrazol-4-yl)pyridine-3-carboxamide] |
| < 10 | < 10 | 10 to 100 | Cn1cc(-c2cnc(N)c(C(=O)N[C@H]3CCC[C@@H]3OCc3ccc(-c4ccc5c(c4)C(C)(C)CN5C4CCN(CCO)CC4)cc3)c2)ccc1=O [Example 36, 6-amino-N-{(1S,2S)-2-[(4-{1-[1-(2-hydroxyethyl)piperidin-4-yl]-3,3-dimethyl-2,3-dihydro-1H-indol-5-yl}phenyl)methoxy]cyclopentyl}-1′-methyl-6′-oxo-1′,6′-dihydro[3,3′-bipyridine]-5-carboxamide] |
| < 10 | 10 to 100 | 100 to 1000 | CC1(C)CN(C2CCN(CCO)CC2)c2ccc(-c3ccc(CO[C@H]4CCC[C@@H]4NC(=O)c4nc(-c5ccc(F)nc5)cnc4N)cc3)cc21 [Example 41, 3-amino-6-(6-fluoropyridin-3-yl)-N-{(1S,2S)-2-[(4-{1-[1-(2-hydroxyethyl)piperidin-4-yl]-3,3-dimethyl-2,3-dihydro-1H-indol-5-yl}phenyl)methoxy]cyclopentyl}pyrazine-2-carboxamide] |
| < 10 | 10 to 100 | 100 to 1000 | CC1(C)CN(C2CCN(CCO)CC2)c2ccc(-c3ccc(CO[C@H]4COC[C@@H]4NC(=O)c4nc(-c5ccc(F)nc5)cnc4N)cc3)cc21 [Example 52, 3-amino-6-(6-fluoropyridin-3-yl)-N-{(3S,4R)-4-[(4-{1-[1-(2-hydroxyethyl)piperidin-4-yl]-3,3-dimethyl-2,3-dihydro-1H-indol-5-yl}phenyl)methoxy]oxolan-3-yl}pyrazine-2-carboxamide] |
| 100 to 1000 | 100 to 1000 | > 1000 | Cn1cc(-c2cnc(N)c(C(=O)N[C@H]3CCC[C@@H]3OCc3ccc(-c4ccc5[nH]c(C(F)(F)F)cc5c4)cc3)c2)cn1 [Example 53, 2-amino-5-(1-methyl-1H-pyrazol-4-yl)-N-[(1S,2S)-2-({4-[2-(trifluoromethyl)-1H-indol-5-yl]phenyl}methoxy)cyclopentyl]pyridine-3-carboxamide] |
